From patent US20230126391A1, “ALPHA-METHYL-SUBSTITUTED DIAZABICYCLO[4.3.1] DECANE DERIVATIVES FOR TREATMENT OF PSYCHIATRIC DISORDERS” (priority 2020, published 2023)
Where two headings read alike, the source gives them in different places.

Columns and labels:
FKBP12 [1] = biological target: T1, FKBP12 (Homo sapiens, UniProt P62942); experiment: FP assay, binding to human FKBPs (Table 1); details: fluorescence polarization assay
FKBP12.6 [2] = biological target: T2, FKBP12.6 (Homo sapiens, UniProt P68106); experiment: FP assay, binding to human FKBPs (Table 1); details: fluorescence polarization assay
T2 sequence (P68106 whole entry): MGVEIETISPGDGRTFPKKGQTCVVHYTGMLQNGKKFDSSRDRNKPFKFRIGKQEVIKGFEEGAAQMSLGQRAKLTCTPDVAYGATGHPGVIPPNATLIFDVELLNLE

FKBP51 = biological target: T3, FKBP51 (Homo sapiens, UniProt Q13451); experiment: FP assay, binding to human FKBPs (Table 1); details: fluorescence polarization assay
T3 sequence (Q13451 1-457): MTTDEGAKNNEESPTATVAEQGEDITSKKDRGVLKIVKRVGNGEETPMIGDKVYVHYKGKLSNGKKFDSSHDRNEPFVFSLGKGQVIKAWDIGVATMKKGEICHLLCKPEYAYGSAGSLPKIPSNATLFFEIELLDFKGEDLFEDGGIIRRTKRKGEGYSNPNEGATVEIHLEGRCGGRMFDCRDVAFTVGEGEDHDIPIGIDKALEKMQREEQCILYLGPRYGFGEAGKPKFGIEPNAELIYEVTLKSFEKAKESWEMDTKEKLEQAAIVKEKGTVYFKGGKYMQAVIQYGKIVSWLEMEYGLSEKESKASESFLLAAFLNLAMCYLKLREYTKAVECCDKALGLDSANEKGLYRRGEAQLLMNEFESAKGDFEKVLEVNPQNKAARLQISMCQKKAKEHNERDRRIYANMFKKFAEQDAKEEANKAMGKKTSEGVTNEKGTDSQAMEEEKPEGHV

FKBP52 = biological target: T4, FKBP52 (Homo sapiens, UniProt Q02790); experiment: FP assay, binding to human FKBPs (Table 1); details: fluorescence polarization assay
T4 sequence (Q02790 1-459): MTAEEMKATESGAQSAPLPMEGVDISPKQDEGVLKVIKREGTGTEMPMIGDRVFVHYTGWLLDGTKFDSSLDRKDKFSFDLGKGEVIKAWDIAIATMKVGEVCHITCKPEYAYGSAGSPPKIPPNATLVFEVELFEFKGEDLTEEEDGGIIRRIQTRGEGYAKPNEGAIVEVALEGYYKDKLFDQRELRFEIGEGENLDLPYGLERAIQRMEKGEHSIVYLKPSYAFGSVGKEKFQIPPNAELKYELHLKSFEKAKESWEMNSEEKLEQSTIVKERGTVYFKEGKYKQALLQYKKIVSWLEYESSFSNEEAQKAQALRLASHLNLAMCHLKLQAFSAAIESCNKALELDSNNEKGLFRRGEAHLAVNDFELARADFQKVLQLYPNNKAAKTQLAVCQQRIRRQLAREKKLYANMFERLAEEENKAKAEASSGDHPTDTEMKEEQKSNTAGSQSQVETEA

LpMip = LpMip (Legionella pneumophila subsp. pneumophila, UniProt Q5ZXE0); experiment: biochemical; assay type: binding
Sequence of LpMip (Q5ZXE0 21-233 limits assumed): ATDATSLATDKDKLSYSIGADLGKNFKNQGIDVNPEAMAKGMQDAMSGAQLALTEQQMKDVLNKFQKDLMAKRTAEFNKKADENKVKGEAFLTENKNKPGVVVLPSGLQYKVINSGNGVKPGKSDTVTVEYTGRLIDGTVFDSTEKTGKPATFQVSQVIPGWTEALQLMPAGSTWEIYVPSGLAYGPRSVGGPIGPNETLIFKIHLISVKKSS

FKBP12 [3] = biological target: T1, FKBP12; experiment: Binding affinity of ligands with large RA (E3-ligase CRBN, PEG linker); details: * = detection limit
Text: (§1) Further example of a diazabicyclo[4.3.1]decane with a large, bulky substituent in RA. The n corresponds to a varying PEG-linker length of 1-5. All tested ligands with a S-methyl group display increased binding affinity to the tested FKBPs while all R-isomers display decreased binding affinity as shown in the table below. In all cases, the addition of the methyl group in S-configuration increases the affinity to all measured FKBPs substantially.

FKBP12.6 [4] = biological target: T2, FKBP12.6; experiment: as above; details: * = detection limit
Text: as §1

FKBP51FK1 = biological target: T5, FKBP51FK1 (Homo sapiens, UniProt Q13451); experiment: as above
T5 construct: FKBP51FK1
T5 sequence (Q13451 42-130 limits assumed): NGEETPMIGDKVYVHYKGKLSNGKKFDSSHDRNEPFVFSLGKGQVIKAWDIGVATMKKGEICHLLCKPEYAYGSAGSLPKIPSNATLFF
Text: as §1

FKBP52FK1 = biological target: T6, FKBP52FK1 (Homo sapiens, UniProt Q02790); experiment: as above
T6 construct: FKBP52FK1
T6 sequence (Q02790 50-138 limits assumed): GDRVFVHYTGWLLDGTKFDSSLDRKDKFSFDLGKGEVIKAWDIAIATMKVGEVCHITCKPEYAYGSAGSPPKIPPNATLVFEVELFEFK
Text: as §1

T1 sequence (P62942 whole entry): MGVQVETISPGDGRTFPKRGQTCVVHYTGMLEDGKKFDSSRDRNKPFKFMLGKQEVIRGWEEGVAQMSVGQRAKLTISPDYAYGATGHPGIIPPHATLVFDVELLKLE

C[C@@H](c1ccccn1)N1C[C@H](CO)[C@H]2CCC[C@@H](C1=O)N2S(=O)(=O)c1cc(Cl)cc(Cl)c1 [23b, (1S,5S,6R)-10-((3,5-dichlorophenyl)sulfonyl)-5-(hydroxymethyl)-3-((S)-1-(pyridin-2-yl)ethyl)-3,10-diazabicyclo[4.3.1]decan-2-one]
Ki (FKBP12 [1]): 0.06 nM
Ki (FKBP12.6 [2]): 0.31 nM
Ki (FKBP51): 1.9 nM
Ki (FKBP52): 1.2 nM
Ki (LpMip): 36 nM

COC[C@H]1CN(Cc2ccccn2)C(=O)[C@@H]2CCC[C@H]1N2S(=O)(=O)c1cc(Cl)cc(Cl)c1 [24a]
Ki (FKBP12 [1]): 0.65 nM
Ki (FKBP12.6 [2]): 3.4 nM
Ki (FKBP51): 12 nM
Ki (FKBP52): 11 nM
Ki (LpMip; read-out: Ki LpMip): 497 nM

COC[C@H]1CN([C@@H](C)c2ccccn2)C(=O)[C@@H]2CCC[C@H]1N2S(=O)(=O)c1cc(Cl)cc(Cl)c1 [24b, (1S,5S,6R)-10-((3,5-dichlorophenyl)sulfonyl)-5-(methoxymethyl)-3-((S)-1-(pyridin-2-yl)ethyl)-3,10-diazabicyclo[4.3.1]decan-2-one]
Ki (FKBP12 [1]): 0.04 nM
Ki (FKBP12.6 [2]): 0.41 nM
Ki (FKBP51): 0.83 nM
Ki (FKBP52): 0.35 nM
Ki (LpMip): 36 nM

O=C1[C@@H]2CCC[C@H]([C@@H](CO)CN1Cc1ccccn1)N2S(=O)(=O)c1ccc2ncsc2c1 [25a]
Ki (FKBP12 [1]): 5.5 nM
Ki (FKBP12.6 [2]): 3.8 nM
Ki (FKBP51): 283 nM
Ki (FKBP52): 190 nM
Ki (LpMip; read-out: Ki LpMip): 3980 nM

CC[C@H]1CN(Cc2ccccn2)C(=O)[C@@H]2CCC[C@H]1N2S(=O)(=O)c1ccc2ncsc2c1 [26a]
Ki (FKBP12 [1]): 6.5 nM
Ki (FKBP12.6 [2]): 5.2 nM
Ki (FKBP51): 410 nM
Ki (FKBP52): 285 nM
Ki (LpMip; read-out: Ki LpMip): 5150 nM

CC[C@H]1CN([C@@H](C)c2ccccn2)C(=O)[C@@H]2CCC[C@H]1N2S(=O)(=O)c1ccc2ncsc2c1 [26b, (1S,5S,6R)-10-(benzo[d]thiazol-6-ylsulfonyl)-5-ethyl-3-((S)-1-(pyridin-2-yl)ethyl)-3,10-diazabicyclo[4.3.1]decan-2-one]
Ki (FKBP12 [1]): 1.9 nM
Ki (FKBP12.6 [2]): 0.6 nM
Ki (FKBP51): 27 nM
Ki (FKBP52): 22 nM
Ki (LpMip): 284 nM

C=C[C@H]1CN(Cc2cn(CCOCC(=O)Nc3cccc4c3C(=O)N(C3CCC(=O)NC3=O)C4=O)nn2)C(=O)[C@@H]2CCC[C@H]1N2S(=O)(=O)c1cc(Cl)cc(Cl)c1 (stereo partly shown) [MTQ503]
Ki (FKBP12 [3]): 0.2 ± 0.03 nM
Ki (FKBP12.6 [4]): 0.46 ± 0.1 nM
Ki (FKBP51FK1): 8 ± 1 nM
Ki (FKBP52FK1): 1.9 ± 0.5 nM

C=C[C@H]1CN(Cc2cn(CCOCCOCC(=O)Nc3cccc4c3C(=O)N(C3CCC(=O)NC3=O)C4=O)nn2)C(=O)[C@@H]2CCC[C@H]1N2S(=O)(=O)c1cc(Cl)cc(Cl)c1 (stereo partly shown) [MTQ504]
Ki (FKBP12 [3]): 2.1 ± 0.2 nM
Ki (FKBP12.6 [4]): 17 ± 1.3 nM
Ki (FKBP51FK1): 25 ± 6 nM
Ki (FKBP52FK1): 43 ± 11 nM

C=C[C@H]1CN(Cc2cn(CCOCCOCCOCC(=O)Nc3cccc4c3C(=O)N(C3CCC(=O)NC3=O)C4=O)nn2)C(=O)[C@@H]2CCC[C@H]1N2S(=O)(=O)c1cc(Cl)cc(Cl)c1 (stereo partly shown) [MTQ505]
Ki (FKBP12 [3]): 2.4 ± 0.2 nM
Ki (FKBP12.6 [4]): 21 ± 2 nM
Ki (FKBP51FK1): 17 ± 4 nM
Ki (FKBP52FK1): 16 ± 5 nM

C=C[C@H]1CN(Cc2cn(CCOCCOCCOCCOCC(=O)Nc3cccc4c3C(=O)N(C3CCC(=O)NC3=O)C4=O)nn2)C(=O)[C@@H]2CCC[C@H]1N2S(=O)(=O)c1cc(Cl)cc(Cl)c1 (stereo partly shown) [MTQ506]
Ki (FKBP12 [3]): 1.5 ± 0.2 nM
Ki (FKBP12.6 [4]): 19 ± 2 nM
Ki (FKBP51FK1): 28 ± 5 nM
Ki (FKBP52FK1): 30 ± 8 nM

C=C[C@H]1CN(Cc2cn(CCOCCOCCOCCOCCOCC(=O)Nc3cccc4c3C(=O)N(C3CCC(=O)NC3=O)C4=O)nn2)C(=O)[C@@H]2CCC[C@H]1N2S(=O)(=O)c1cc(Cl)cc(Cl)c1 (stereo partly shown) [MTQ507]
Ki (FKBP12 [3]): 0.7 ± 0.1 nM
Ki (FKBP12.6 [4]): 10 ± 1.2 nM
Ki (FKBP51FK1): 12 ± 2 nM
Ki (FKBP52FK1): 60 ± 12 nM

C=C[C@H]1CN([C@@H](C)c2cn(CCOCC(=O)Nc3cccc4c3C(=O)N(C3CCC(=O)NC3=O)C4=O)nn2)C(=O)[C@@H]2CCC[C@H]1N2S(=O)(=O)c1cc(Cl)cc(Cl)c1 (stereo partly shown) [MTQ513]
Ki (FKBP12 [3]): 0.2 ± 0.02 nM
Ki (FKBP12.6 [4]): 0.41 ± 0.2 nM
Ki (FKBP51FK1): 2.3 ± 0.4 nM
Ki (FKBP52FK1): 0.7 ± 0.3 nM

C=C[C@H]1CN([C@@H](C)c2cn(CCOCCOCC(=O)Nc3cccc4c3C(=O)N(C3CCC(=O)NC3=O)C4=O)nn2)C(=O)[C@@H]2CCC[C@H]1N2S(=O)(=O)c1cc(Cl)cc(Cl)c1 (stereo partly shown) [MTQ514]
Ki (FKBP12 [3]): 0.4 ± 0.1 nM
Ki (FKBP12.6 [4]): 2.4 ± 0.4 nM
Ki (FKBP51FK1): 4.4 ± 1.2 nM
Ki (FKBP52FK1): 5.7 ± 1.7 nM

C=C[C@H]1CN([C@@H](C)c2cn(CCOCCOCCOCC(=O)Nc3cccc4c3C(=O)N(C3CCC(=O)NC3=O)C4=O)nn2)C(=O)[C@@H]2CCC[C@H]1N2S(=O)(=O)c1cc(Cl)cc(Cl)c1 (stereo partly shown) [MTQ515]
Ki (FKBP12 [3]): 0.5 ± 0.1 nM
Ki (FKBP12.6 [4]): 4.8 ± 0.5 nM
Ki (FKBP51FK1): 3.2 ± 0.9 nM
Ki (FKBP52FK1): 5 ± 1.2 nM

C=C[C@H]1CN([C@@H](C)c2cn(CCOCCOCCOCCOCC(=O)Nc3cccc4c3C(=O)N(C3CCC(=O)NC3=O)C4=O)nn2)C(=O)[C@@H]2CCC[C@H]1N2S(=O)(=O)c1cc(Cl)cc(Cl)c1 (stereo partly shown) [MTQ516]
Ki (FKBP12 [3]): 0.5 ± 0.1 nM
Ki (FKBP12.6 [4]): 3.7 ± 0.5 nM
Ki (FKBP51FK1): 4.2 ± 0.8 nM
Ki (FKBP52FK1): 8.4 ± 2.3 nM

C=C[C@H]1CN([C@@H](C)c2cn(CCOCCOCCOCCOCCOCC(=O)Nc3cccc4c3C(=O)N(C3CCC(=O)NC3=O)C4=O)nn2)C(=O)[C@@H]2CCC[C@H]1N2S(=O)(=O)c1cc(Cl)cc(Cl)c1 (stereo partly shown) [MTQ517]
Ki (FKBP12 [3]): 0.4 ± 0.05 nM
Ki (FKBP12.6 [4]): 1.5 ± 0.3 nM
Ki (FKBP51FK1): 2.1 ± 0.4 nM
Ki (FKBP52FK1): 4.9 ± 1.1 nM
